Values of other authors as cited in patent publication US20220323409A1, “MODIFIED RELEASE FORMULATIONS AND USES THEREOF” (SUNOVION PHARMACEUTICALS INC., priority 2019, published 2022).

Experiments:
[1] = Taubel et al. 2017
[2] = 400-800 mg/day dosage range, product label

## CCN1CCCC1CNC(=O)c1cc(S(=O)(=O)CC)c(N)cc1OC (racemic) [Racemic (50:50), 4-amino-N-[(1-ethylpyrrolidin-2-yl)methyl]-5-ethylsulfonyl-2-methoxy-benzamide]
[1]
  QT interval prolongation versus plasma concentration: substantially linear increase of prolongation with plasma concentration
[2]
  frequency of movement related adverse events (tremor, rigidity, hypokinesia, hypersalivation, akathisia, dyskinesia): very common
